Laboratory results taken from US20100203634A1, “Inhibition of stem cell differentiation, enhancement of proliferation and selective induction of apoptosis by Wnt factors” (DeltaCell B.V., priority 2003, published 2010).
Entries after “also recorded” stand apart in the source; their conditions may differ.

Assays:
fetal lung explants = test: Fetal murine lung explant culture (hanging drop), stereomicroscopy and H/E histology of differentiation; format: cell-based, mouse
Text: To provide proof of evidence, an in vitro explant lung culture (obtained from a mouse) is used. Generation of new alveolar tissue in patients is stimulated by activation or re-activation of alveolar bud formation. Growth and branching of alveolar buds, followed by transformation into alveolar ducts, sacs and pouches, results in the establishment of pulmonary acini.
As a proof of evidence, it is, therefore, shown that treatment with selected molecules involved in a Wnt pathway inhibits the differentiation process of alveolar differentiation. Inhibition of this differentiation process is achieved by applying a purified Wnt3a polypeptide to an in vitro lung explant culture of 13-day-old (E13) mouse embryos.
The (fetal) murine lung explant culture was generated according to our standard protocol. Briefly, complete lungs or individually dissected lung lobes were isolated from fetal mice and cultured for one to five days in a hanging drop culture system. The Wnt3a polypeptide was administered to the culture medium in different concentrations, ranging from 0 to 4000 ng/ml. The effect of this treatment was monitored by stereomicroscopy. The lung explant cultures were subsequently fixed for 30 minutes in 10% paraformaldehyde (PFA), 30 minutes in 2% PFA and 30 minutes in 4% PFA. After fixation, the lung explants were dehydrated through an increasing series of 2-isopropanol and subsequently embedded in paraffin. For the histological analysis, 4 μm thick sections were cut and stained with Hematoxilin and Eosin using standard techniques.
As a source for Wnt3a, recombinant mouse Wnt3a from R&D Systems (catalog nr. 1324-WN, R&D Systems, Inc. Minneapolis USA) was used. As culture medium, DMEM/HAM's F12 (1:1) from Biochrom AG, catalog nr. FG 4815, was used.

[1] = test system: mesenchyme and epithelium of fetal lung explants; test: PCNA immunohistochemistry (proliferation) on lung explants; format: cell-based, mouse
Method: Detection of the PCNA epitopes was carried out by treating the sections with di-aminobenzidine (DAB) for 15 minutes.
The antibody against PCNA was purchased from Zymed Laboratories Inc. (cat nr. 18-0110). The secondary conjugate used was from Jackson Laboratories, Inc. (catalog nr. 115-056-062).

[2] = test system: fetal lung explants (E12.5); test: Quantification of cell proliferation using phospho histon H3 immunohistochemistry; format: cell-based, mouse
Method: The number of cells undergoing mitosis was measured using immunohistochemical detection of phosphorylated histon H3, which is present only on condensed chromosomes during mitosis. Per condition, at least four different lung explants were treated and in total, 20 sections per condition were counted for phospho histon H3-positive cells by two different investigators. The primary antibody against phopho histon H3 (Ser10, clone 6G3) was purchased from Cell Signaling Technology and used according to the recommendations of the supplier.
To further determine the short-term effect of different Wnt3A concentrations upon the induction of proliferation, lung explants (E12.5) were cultured for one day with 0, 30, 125 and 500 ng/ml Wnt3a.
The lung explants were processed for immunohistochemical analysis and stained for Histon H3 phosphorylation, which can be used as a quantifiable cell proliferation marker as it is present in a fixed amount on condensed chromosomes only during active cell division (material and methods). […] However, most of the increase in proliferation could be accounted to the mesenchyme, where an increase in 40 to 60% of cells undergoing […] was observed.

[3] = test system: Wnt-signaling pathway in primary lung fibroblasts isolated from a E12.5 fetal lung; test: TopFlash/FopFlash reporter assay, primary fetal lung cells; format: cell-based, mouse; conditions: 0.4 to 500 ng/ml, 20 hours
Method: (§1) Primary mouse fibroblasts isolated from E12.5 lung explants, the human epithelial lung carcinoma cell line A549 cells (ATCC CCL-185), the human epithelial lung adenocarcinoma cell line Calu-3 (ATCC_HTB-55) and the normal human fetal lung fibroblast cell line HFL-1 cells (ATCC—153) were cultured in 96-well plates and transfected with the TopFlash and FopFlash reporter constructs using lipofectamine 2000 according to the manufacturer's instructions. As an internal control for transfection efficiency, a constitutive renilla luciferase reporter (Promega) was cotransfected. The cells were transfected with the above-mentioned reporter constructs and simultaneously treated with different concentrations of Wnt3A for 20 hours, after which the cells were lysed and luciferase expression was measured using a Berthold luminometer for two seconds (V. Korinek et al., Mol. Cell. Biol. 18:1248-1256, 1998). The Lipofectamine 2000 transfection reagent was purchased from Invitrogen Life Technologies. The wild-type beta-catenin/TCF reporter plasmid (TOPFLASH) and mutated reporter plasmid (FOPFLASH) were obtained from Upstate Biotechnology (NY, USA).
The dissociated lungs were co-transfected with the TopFlash reporter construct that is activated by nuclear beta-catenin transcription complexes. […]

[4] = test system: Wnt-signaling pathway in human epithelial lung carcinoma cell line A549; test: TopFlash/FopFlash reporter assay, A549; format: cell-based; conditions: A549, 20 hours
Method: as §1, with “The Lipofectamine 2000 transfection reagent was purchased from Invitrogen Life Technologies. The wild-type beta-catenin/TCF reporter plasmid (TOPFLASH) and mutated reporter plasmid (FOPFLASH) were obtained from Upstate Biotechnology (NY, USA).” left out
(§2) In order to analyze if Wnt3A is able to activate the Wnt signal-transduction pathway in humans, we stimulated three different cell lines from human origin with Wnt3A and measured the response with the TopFlash/FopFlash reporter assay. The three human lung-derived cell lines analyzed were the lung epithelial carcinoma cell line A549 (FIG. 9B), the normal lung fibroblast line HFL-1 (FIG. 9C), and the epithelial adenocarcinoma cell line calu-3 (FIG. 9D).

[5] = test system: Wnt-signaling pathway in normal human fetal lung fibroblast cell line HFL-1; test: TopFlash/FopFlash reporter assay, HFL-1; format: cell-based; conditions: HFL-1, 20 hours
Method: as §1, with “The Lipofectamine 2000 transfection reagent was purchased from Invitrogen Life Technologies. The wild-type beta-catenin/TCF reporter plasmid (TOPFLASH) and mutated reporter plasmid (FOPFLASH) were obtained from Upstate Biotechnology (NY, USA).” left out
as §2

Substance: Wnt3a
- differentiation of the epithelium (fetal lung explants; 500 ng/ml, four days): delayed; also recorded: undifferentiated character of the epithelium
- differentiation of the primordial lung epithelium (histology) (fetal lung explants; 1000 ng/ml, five-day-old cultures): arrested at a stage comparable to that of the start of the culture (E13); also recorded: strong inhibitory effect on the development and differentiation of the fetal lung; also recorded: arrest of alveolar differentiation
- effect on cell viability (fetal lung explants; 2000 ng/ml): affects the viability of all cells
- effect on lung development (stereomicroscopy) (fetal lung explants; 2000 ng/ml and 4000 ng/ml, after one day): deleterious effect on lung development
- complete block of differentiation of fetal lung development (fetal lung explants; 4, 20, 100 and 500 ng/ml, four days): None of these concentrations was effective in completely blocking the differentiation
- lung differentiation (stereomicroscopy) (fetal lung explants; E13 lung explants, 1000 ng/ml, after 16 hours): total block of lung differentiation
- differentiation and alveolar development (stereomicroscopy) (fetal lung explants; E13 lung explants, 1000 ng/ml, five days culture): no significant differentiation and alveolar development could be observed
- effects at the level of apoptosis and differentiation compared to control (fetal lung explants; between 4 and 20 ng/ml, four days): no clear effects were visible
- concentration at which differentiation was strongly retarded with many picnotic cells (fetal lung explants; histological examination at day 4): above 100 ng/ml
- concentration that does not show clear morphological changes (fetal lung explants; lung explants): below 1 ng/ml
- PCNA staining in the bronchial epithelium ([1]; 500 ng/ml, two days): marked overall increase in the intensity and frequency of PCNA staining; also recorded: elevated PCNA staining
- PCNA staining (proliferation) of epithelium and mesenchyme ([1]; 1000 ng/ml, five days): the epithelium was still proliferating whereas most of the mesenchymal cells were inactive or dead; also recorded: strong reduction in proliferation of the mesenchyme versus the epithelium
- PCNA staining ([1]; 1000 ng/ml, two days): reduces the PCNA staining below the control situation
- PCNA staining ([1]; 2000 and 4000 ng/ml, two days): completely negative
- concentration at which proliferation is absent / inhibited ([1]; lung explants): above 2000 ng/ml
- effect on proliferation ([2]; 30 ng/ml, after one day): markedly increases proliferation
- increase in overall proliferation (phospho histon H3-positive cells) ([2]; 30, 125 and 500 ng/ml, one day): > 20%
- concentration at which the maximum stimulatory effect on proliferation was reached ([2]; one day): ≤ 30 ng/mL
- TopFlash versus FopFlash reporter response [3]: clear Wnt3A dosage-dependent response
- TopFlash/FopFlash reporter response [4]: respond to Wnt3A in a dosage-dependent manner; also recorded: strong induction of the Wnt-signaling pathway
- TopFlash/FopFlash reporter response [5]: respond to Wnt3A in a dosage-dependent manner; also recorded: strong induction of the Wnt-signaling pathway
